# Assay results reported in the supplement of paper PMC10307832.
# Compound: O=C1NC(=O)[C@@H](c2cn3c4c(cccc24)CCC3)[C@@H]1c1c[nH]c2ccccc12 [Tivantinib] + Cc1nc(NC(=O)N2CCC[C@H]2C(N)=O)sc1-c1ccnc(C(C)(C)C(F)(F)F)c1 [Alpelisib] (partner 2 µM)
# Assay: relative viability (nuclei count vs DMSO), 5 days (fraction); higher = more cells survive
# Conditions: first compound 0.3162 µM
# Method in brief: (§1)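 Lung cancer cell lines in 1536-well plates were dosed by pin tool the day after seeding, either with one drug alone or with a fixed anchor-drug dose plus five library-drug doses (not always all listed) in √10 steps. After 5 days, cells were fixed and their nuclei stained in one step (final 0.05% Triton X-100, 1% formaldehyde, 1 ug/ml Hoechst), then counted on 4× images. Relative viability is the nuclei count in treated wells divided by that in vehicle wells. Values are medians of duplicate plates.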
row,Cell Line,relative viability
1,NCI-H1703,0.334
2,NCI-H647,1.14
3,LK-2,0.668
4,NCI-H2126,0.684
5,SK-MES-1,0.444
6,HARA,0.431
7,COR-L23,0.905
8,COR-L 105,0.95
9,LC-2-ad,0.904
10,LU99A,0.369
11,NCI-H3122,0.807
12,IA-LM,0.815
13,A549,0.79
14,NCI-H2023,0.492
15,NCI-H520,0.925
16,SW 1573,0.716
17,NCI-H1299,1.02
18,NCI-H1563,1.06
19,NCI-H1792,0.415
20,SK-LU-1,1.16

# Compound: CC1(COc2ccc3c(c2)ncn3-c2ccc3cccc(N4CCC(N)CC4)c3n2)COC1 [Crenolanib] + NC(=O)Nc1cc(-c2cccc(F)c2)sc1C(=O)N[C@H]1CCCNC1 [AZD7762] (partner 0.2 µM)
# Assay: as above
# Conditions: first compound 0.01 µM
# Method in brief: as §1
row,Cell Line,relative viability
1,NCI-H522,1.03
2,NCI-H838,0.883
3,NCI-H1651,0.49
4,NCI-H1734,0.569
5,EPLC-272H,0.207
6,PC-14,0.39
7,LCLC-97TM1,0.316
8,NCI-H596,1.27
9,EMC-BAC-2,1.1
10,NCI-H2087,1.33
11,HCC-44,1.05
12,NCI-H1703,0.143
13,NCI-H647,0.616
14,LK-2,0.483
15,NCI-H2126,1.07
16,NCI-H2342,0.607
17,HARA,0.399
18,LC-2-ad,0.892
19,LU99A,0.42
20,ChaGo-K-1,0.876
21,NCI-H2170,0.941
22,NCI-H3122,1.02
23,SW 900,0.735
24,NCI-H1648,0.666
25,NCI-H1792,0.701

# Same assay, conditions: first compound 0.03162 µM
row,Cell Line,relative viability
1,NCI-H522,0.853
2,NCI-H838,0.977
3,NCI-H1651,0.399
4,NCI-H1734,0.61
5,EPLC-272H,0.238
6,PC-14,0.305
7,LCLC-97TM1,0.219
8,NCI-H596,1.16
9,NCI-H2087,1.18
10,HCC-44,0.955
11,NCI-H1703,0.131
12,NCI-H647,0.497
13,LK-2,0.46
14,NCI-H2126,1.05
15,NCI-H2342,0.475
16,HARA,0.391
17,LC-2-ad,0.898
18,LU99A,0.419
19,ChaGo-K-1,0.863
20,NCI-H2170,0.852
21,NCI-H3122,0.958
22,NCI-H1792,0.686

# Same assay, conditions: first compound 0.1 µM
row,Cell Line,relative viability
1,NCI-H522,0.773
2,NCI-H838,0.886
3,NCI-H1651,0.434
4,NCI-H1734,0.567
5,EPLC-272H,0.376
6,PC-14,0.36
7,LCLC-97TM1,0.41
8,NCI-H596,1.03
9,EMC-BAC-2,1.1
10,NCI-H2087,1.39
11,HCC-44,1.01
12,NCI-H1703,0.114
13,NCI-H647,0.448
14,LK-2,0.423
15,NCI-H2126,0.927
16,NCI-H2342,0.475
17,HARA,0.588
18,LC-2-ad,0.777
19,LU99A,0.414
20,ChaGo-K-1,0.866
21,NCI-H2170,0.897
22,NCI-H3122,1.02
23,SW 900,0.756
24,NCI-H1648,0.673
25,NCI-H1792,0.656

# Same assay, conditions: first compound 0.3162 µM
row,Cell Line,relative viability
1,NCI-H522,0.88
2,NCI-H838,0.924
3,NCI-H1651,0.472
4,NCI-H1734,0.756
5,EPLC-272H,0.289
6,PC-14,0.281
7,LCLC-97TM1,0.561
8,NCI-H596,1.22
9,EMC-BAC-2,1.25
10,NCI-H2087,1.6
11,HCC-44,1.07
12,NCI-H1703,0.116
13,NCI-H647,0.481
14,LK-2,0.499
15,NCI-H2126,1.05
16,NCI-H2342,0.532
17,HARA,0.248
18,LC-2-ad,0.908
19,LU99A,0.467
20,ChaGo-K-1,0.933
21,NCI-H2170,0.934
22,NCI-H3122,1.04
23,SW 900,0.858
24,NCI-H1648,0.673
25,NCI-H1792,0.834

# Same assay, conditions: first compound 1 µM
row,Cell Line,relative viability
1,NCI-H522,0.836
2,NCI-H838,0.901
3,NCI-H1651,0.558
4,NCI-H1734,0.659
5,EPLC-272H,0.251
6,PC-14,0.328
7,LCLC-97TM1,0.277
8,NCI-H596,1.11
9,EMC-BAC-2,1.07
10,NCI-H2087,1.34
11,HCC-44,0.973
12,NCI-H1703,0.113
13,NCI-H647,0.424
14,LK-2,0.453
15,NCI-H2126,0.973
16,NCI-H2342,0.484
17,HARA,0.509
18,LC-2-ad,0.821
19,LU99A,0.401
20,ChaGo-K-1,0.891
21,NCI-H2170,0.852
22,NCI-H3122,0.996
23,SW 900,0.522
24,NCI-H1648,0.745
25,NCI-H1792,0.754

# Compound: CC1(COc2ccc3c(c2)ncn3-c2ccc3cccc(N4CCC(N)CC4)c3n2)COC1 [Crenolanib] + Cc1cc(Nc2cc(N3CCN(C)CC3)nc(Sc3ccc(NC(=O)C4CC4)cc3)n2)n[nH]1 [Tozasertib] (partner 0.1 µM)
# Assay: as above
# Conditions: first compound 0.01 µM
# Method in brief: as §1
row,Cell Line,relative viability
1,NCI-H522,0.559
2,NCI-H1623,0.492
3,NCI-H838,0.321
4,NCI-H1651,0.649
5,NCI-H1734,0.275
6,NCI-H2009,0.748
7,EPLC-272H,0.385
8,PC-14,0.697
9,LCLC-97TM1,0.268
10,NCI-H596,0.944
11,NCI-H2228,0.291
12,EMC-BAC-2,0.312
13,NCI-H2087,0.219
14,HCC-44,1.07
15,NCI-H647,0.294
16,LK-2,0.164
17,NCI-H2126,0.87
18,NCI-H2342,0.546

row,Cell Line,relative viability
1,SK-MES-1,0.899
2,HARA,0.138
3,COR-L23,0.214
4,COR-L 105,0.379
5,LC-2-ad,0.495
6,LU99A,0.288
7,ChaGo-K-1,0.26
8,NCI-H2170,0.747
9,NCI-H3122,0.406
10,SW 900,0.62
11,NCI-H1648,0.496
12,NCI-H2023,0.471
13,NCI-H520,0.48
14,SW 1573,0.175
15,NCI-H1650,0.334
16,SK-LU-1,0.395
17,NCI-H661,0.342

# Same assay, conditions: first compound 0.03162 µM
row,Cell Line,relative viability
1,NCI-H522,0.604
2,NCI-H1623,0.439
3,NCI-H838,0.287
4,NCI-H1651,0.716
5,NCI-H1734,0.251
6,NCI-H2009,0.713
7,EPLC-272H,0.352
8,PC-14,0.573
9,LCLC-97TM1,0.194
10,NCI-H596,1.09
11,NCI-H2228,0.279
12,EMC-BAC-2,0.251
13,NCI-H2087,0.277
14,HCC-44,0.781
15,NCI-H647,0.384
16,LK-2,0.179
17,NCI-H2126,0.909
18,NCI-H2342,0.496

row,Cell Line,relative viability
1,SK-MES-1,0.832
2,HARA,0.131
3,COR-L23,0.22
4,COR-L 105,0.426
5,LC-2-ad,0.435
6,LU99A,0.261
7,ChaGo-K-1,0.264
8,NCI-H2170,0.857
9,NCI-H3122,0.399
10,SW 900,0.675
11,NCI-H1648,0.51
12,NCI-H2023,0.368
13,NCI-H520,0.475
14,SW 1573,0.198
15,NCI-H1650,0.508
16,SK-LU-1,0.369
17,NCI-H661,0.36

# Same assay, conditions: first compound 0.1 µM
row,Cell Line,relative viability
1,NCI-H522,0.559
2,NCI-H1623,0.437
3,NCI-H838,0.25
4,NCI-H1651,0.592
5,NCI-H1734,0.249
6,NCI-H2009,0.724
7,EPLC-272H,0.257
8,PC-14,0.554
9,LCLC-97TM1,0.247
10,NCI-H596,1.02
11,NCI-H2228,0.236
12,EMC-BAC-2,0.322
13,NCI-H2087,0.239
14,HCC-44,0.89
15,NCI-H647,0.285
16,LK-2,0.19
17,NCI-H2126,0.807
18,NCI-H2342,0.682

row,Cell Line,relative viability
1,SK-MES-1,0.847
2,HARA,0.145
3,COR-L23,0.201
4,COR-L 105,0.365
5,LC-2-ad,0.447
6,LU99A,0.277
7,ChaGo-K-1,0.234
8,NCI-H2170,0.69
9,NCI-H3122,0.373
10,SW 900,0.547
11,NCI-H1648,0.602
12,NCI-H2023,0.333
13,NCI-H520,0.514
14,SW 1573,0.137
15,NCI-H1650,0.361
16,SK-LU-1,0.342
17,NCI-H661,0.35

# Same assay, conditions: first compound 0.3162 µM
row,Cell Line,relative viability
1,NCI-H522,0.561
2,NCI-H1623,0.41
3,NCI-H838,0.266
4,NCI-H1651,0.852
5,NCI-H1734,0.306
6,NCI-H2009,0.722
7,EPLC-272H,0.286
8,PC-14,0.533
9,LCLC-97TM1,0.202
10,NCI-H596,1.19
11,NCI-H2228,0.223
12,EMC-BAC-2,0.239
13,NCI-H2087,0.262
14,HCC-44,0.578
15,NCI-H647,0.354
16,LK-2,0.177
17,NCI-H2126,0.699
18,NCI-H2342,0.483

row,Cell Line,relative viability
1,SK-MES-1,0.912
2,HARA,0.116
3,COR-L23,0.206
4,COR-L 105,0.38
5,LC-2-ad,0.34
6,LU99A,0.249
7,ChaGo-K-1,0.209
8,NCI-H2170,0.648
9,NCI-H3122,0.334
10,SW 900,0.457
11,NCI-H1648,0.387
12,NCI-H2023,0.371
13,NCI-H520,0.477
14,SW 1573,0.212
15,NCI-H1650,0.4
16,SK-LU-1,0.349
17,NCI-H661,0.359

# Same assay, conditions: first compound 1 µM
row,Cell Line,relative viability
1,NCI-H522,0.576
2,NCI-H1623,0.421
3,NCI-H838,0.251
4,NCI-H1651,0.61
5,NCI-H1734,0.275
6,NCI-H2009,0.52
7,EPLC-272H,0.377
8,PC-14,0.413
9,LCLC-97TM1,0.258
10,NCI-H596,0.972
11,NCI-H2228,0.256
12,EMC-BAC-2,0.309
13,NCI-H2087,0.254
14,HCC-44,0.57
15,NCI-H647,0.297
16,LK-2,0.171
17,NCI-H2126,0.745
18,NCI-H2342,0.454

row,Cell Line,relative viability
1,SK-MES-1,0.746
2,HARA,0.121
3,COR-L23,0.185
4,COR-L 105,0.358
5,LC-2-ad,0.385
6,LU99A,0.263
7,ChaGo-K-1,0.22
8,NCI-H2170,0.769
9,NCI-H3122,0.452
10,SW 900,0.516
11,NCI-H1648,0.408
12,NCI-H2023,0.25
13,NCI-H520,0.437
14,SW 1573,0.174
15,NCI-H1650,0.357
16,SK-LU-1,0.34
17,NCI-H661,0.412
